Key:
Assay type in all cases: in vivo
[1] = test system: Ficus carica cv. Brown Turkey plants; experiment: Herbicide resistance in control and transgenic Brown Turkey tissue culture
Source text: The pME504 plasmid which comprises the bar gene [Streptomyces hygroscopicus bar gene conferring resistance to herbicide bialaphos (X05822) Thompson, C. J., Movva, N. R., Tizard, R., Crameri, R., Davies, J. E., Lauwereys, M. and Botterman, J. Characterization of the herbicide-resistance gene bar from Streptomyces hygroscopicus EMBO J. 6, 2519-2523 (1987)] was used to transform ‘Brown Turkey’ plants. Herbicide resistance in control and transgenic Brawn Turkey cv. tissue culture line 001 was evaluated.

Ficus carica shoots [2] = experiment: Root formation of regenerated shoots, rooting in solid medium; conditions: for Root formation (%) ± SE, Rooting in solid medium: scored after 4 weeks
Procedure: (§1) Two methods for rooting were examined. According to one method, each shoot was cultivated individually in a tube with root induction (RI) medium composed of half concentration MS medium (½MS) supplemented with 100 mg/l myo-inositol, 1 mg/l thiamine-HCl, 90 mg/l phloroglucinol, 2% sucrose (w/v), 0.25% activated charcoal (AC) and 0.8% agar (pH=5.7). The effect of IBA at different concentrations (0, 1, 2 mg/l) was also tested. Each treatment included 32 individual plants. According to another method, well developed shoots (up to 3-4 cm long with 3-4 expanded leaves) were directly transplanted from the proliferation medium to Rooting Cylinders (3.5 cm high×3.0 cm in diameter) with soil mixture comprising 55% granular polypropylene foam, 30% peat and 15% perlite (Tivonchem Ltd, Israel) moistened/soaked/with liquid RI medium without AC, supplemented with either 0, 1, 2 mg/l IBA. Results were scored (0=shoot with no root; 1=rotting shoot) after 4 weeks and based on 32 shoots (8 Magenta boxes with 4 cylinders) per treatment. Each experiment was repeated three times. Plantlets were cultured in closed boxes for one week in a growth chamber and then transferred for one week to a greenhouse. Then the plantlets were further transferred to a high humidity chamber without closures for additional 2 weeks for further acclimatization by decreasing the relative humidity stepwise.
(§2) Two methods were examined to obtained root induction (Table 1). According to the first approach, each regenerated shoot was placed in a tube containing root induction medium comprising 2 mg/l IBA. Using this method, ca. 80% of the shoots formed roots. However, insufficient percentage of these plants was successfully acclimatized in the greenhouse conditions. According to the second approach, regenerated shoots were cultured directly in rooting cylinders, with or without 1 mg/l IBA. […] These plants had better hardening and growth characteristics and easier further acclimatization in the greenhouse conditions (FIG. 5).

Ficus carica shoots [3] = experiment: Root formation of regenerated shoots, rooting in liquid medium; conditions: for Root formation (%) ± SE, Rooting in liquid medium: scored after 4 weeks
Procedure: as §1, §2

[4] = test system: Ficus carica leaf explants; experiment: Adventitious shoot regeneration from leaf explants; conditions: control explants with TDZ only (0.5-5 mg/l); cv. Brown Turkey
Procedure: Regeneration experiments were carried out initially with the cultivar Brown Turkey. To examine the effect of culture media on adventitious bud formation, the basal media MS, AP [13] and NN [14]; and various combinations of the auxins IBA and NAA (0.25-2 mg/l), NAA with the cytokinins TDZ (0.5-5 mg/l) and BA (2-5 mg/l) were examined. A control treatment with only TDZ (0.5-5 mg/l) was performed. The regeneration media contained MS basal salt mixture, supplemented with 100 mg/l myo-inositol, 1 mg/l thiamine-HCl, 2-4% sucrose (w/v) and 0.8%, agar (Sigma), at pH 5.7. The effect of the addition of 0.25% activated charcoal (AC) was also examined.
The youngest three expanded leaves isolated from 3-4 weeks old plants were used as explants. Each leaf was wounded forming three scares perpendicular to the central vein and placed on regeneration medium with the abaxial or adaxial surface down. Minimum ten Petri dishes, each containing ten explants were used per treatment. The cultures were kept for 7 days in low light intensity (2.5 μmol/m^2 s) followed by exposure to high light intensity (40 μmol/m^2 s) at 25° C., in a 16 hL/8 hD photoperiod. Leaf explants were examined after 28 and 35 days and the percentage of explant producing shoots (regeneration capacity) and the mean of adventitious shoots formed per regenerating explant (regeneration efficacy) were recorded. […]

[5] = test system: Ficus carica leaf explants and shoots; experiment: Tolerance of non-inoculated leaf explants and of shoots to kanamycin
Procedure: In order to use kanamycin as a selection agent for transformed cells, non-inoculated leaf explants from in vitro fig cultures of both cultivars Brown Turkey and Smyrna were tested for their tolerance to kanamycin. Wounded leaves were placed on a regeneration medium supplemented with kanamycin at a concentration selected from 0, 10, 25, 50, 75 and 100 mg/l. The minimal concentration for inhibition of adventitious shoot induction for cv. Brown Turkey was 25 mg/l. However with cv. […] Therefore, the concentration of 50 mg/l kanamycin was initially chosen for selection in the subsequent transformation experiments.
Leaf explants of 3-4 weeks old in vitro propagated Ficus carica plants were wounded across the main vein and co-cultivated with the disarmed strain EHA105 harboring the plasmid pME504, comprising the genes GUS-int and npt II. Following co-cultivation with A. tumefaciens, explants were initially placed on regeneration medium supplemented with 50 mg/l kanamycin and 150 mg/l ticarcillin and cultured with their adaxial side up. The leaf explants were exposed for one week to low light intensity and then transferred to normal light. Under the selective conditions of 50 mg/l kanamycin, up to 30% of the explants of Brown Turkey and up to 50% of Smyrna formed green shoots after 4 weeks of culture. […]

CP(=O)(O)CC[C@H](N)C(=O)O [Basta, phosphinothricin]
herbicide effect on non-transformed plants ([1]; control Brown Turkey cv., increasing concentrations of PPT (FIG. 11)): signs of necrosis and chlorosis on basal leaves following two days and died one week later | herbicide effect on resistant (bar transgenic) lines ([1]; transgenic Brown Turkey cv. tissue culture line 001, 10 ppm Basta): propagated in vitro

O=C(O)CCCc1c[nH]c2ccccc12 [IBA, indol-3-butyric acid]
Root formation (%) ± SE, Rooting in solid medium (Ficus carica shoots [2]; IBA 1 mg/l): 100% | Root formation (%) ± SE, Rooting in solid medium (Ficus carica shoots [2]; IBA 2 mg/l): 83 ± 6.27% | shoots that formed roots (Ficus carica shoots [2]; each shoot in a tube with root induction medium, 2 mg/l IBA): ca. 80% | Root formation (%) ± SE, Rooting in liquid medium (Ficus carica shoots [3]; IBA 1 mg/l): 47 ± 5.43% | Root formation (%) ± SE, Rooting in liquid medium (Ficus carica shoots [3]; IBA 2 mg/l): 81.3 ± 7.61% | root formation (Ficus carica shoots [3]; shoots directly in rooting cylinders, with or without 1 mg/l IBA, after 4 weeks): 100%

O=C(Nc1ccccc1)Nc1cnns1 [TDZ, N-phenyl-N′-1,2,3-thiadiazol-5-yl urea]
regeneration frequency [4]: ca. 2%

NC[C@H]1O[C@H](O[C@H]2[C@H](O)[C@@H](O[C@H]3O[C@H](CO)[C@@H](O)[C@H](N)[C@H]3O)[C@H](N)C[C@@H]2N)[C@H](O)[C@@H](O)[C@@H]1O [kanamycin]
effect on new emerging transgenic shoots ([5]; more than 3 subcultures at 100 mg/l kanamycin on proliferation medium): inhibition of their growth and development | minimal concentration for inhibition of adventitious shoot induction ([5]; non-inoculated leaf explants, cv. Brown Turkey): 25 mg/L

— patent US8148603B2, “Transgenic ficus, method for producing same and use thereof” (The State of Israel, Ministry of Agriculture & Rural …, priority 2004, dated 2012)
